Results taken from patent publication US20230014181A1, “CULTURE SYSTEM AND METHODS FOR IMPROVED MODELING OF NEUROLOGICAL CONDITIONS” (Genentech, Inc., priority 2021, published 2023).
Structures can show the parent of a compound that is named as a salt. Where two headings read alike, the source gives them in different places.

Legend:
[1] = system: human iPSC neurons and astrocytes treated with 5 μM sAβ42s; assay: Focused small molecule screen, double culture (neuron, astrocyte), rescue from sAβ42s toxicity, high content imaging; assay type: cell-based; conditions: double culture, 5 μM sAβ42s; for percent rescue from sAβ42s toxicity at 6.25 µM / percent rescue from sAβ42s toxicity at 12.5 µM / percent rescue from sAβ42s toxicity at 25 µM / percent rescue from sAβ42s toxicity at 50 µM: Homo sapiens, iPSC
Protocol: FIGS. 11A-11D show synapse % rescue versus MAP2% rescue (FIGS. 11A-11B) and beta III tubulin % rescue versus MAP2% rescue (FIGS. 11C-11D), in neurons and astrocytes (FIGS. 11A and 11C) or neurons, astrocytes, and microglia (FIGS. 11B and 11D) treated with 5 μM sAβ42s and small molecules from a focused screen of known neuroprotective agents at multiple concentrations (50 μM, 25 μM, 12.5 μM and 6.25 μM (double culture), 50 μM, 12.5 μM, 3.1 μM and 0.78 μM (triple culture). Small molecules that prevented toxicity in dendrites (MAP2), synapses (Synapsin 1/2), cell count (CUX2), or axons ([…]) at or above 30% were considered hits (red dotted line).
Neurons from both NSC lines were evaluated by immunofluorescence staining. Briefly, cells were fixed with 4% PFA and 4% sucrose at room temperature for 20 minutes using Bravo automation. Fixed cells were then washed 2 times with PBS using Biotek 406 microplate washer (Beckman Coulter), followed by permeabilization and blocking by incubation with a solution containing 1×PBS, 0.1% Triton X-100, 2% donkey serum, and 1% BSA at room temperature for 30 minutes. Blocking solution was removed and cells were incubated with primary antibodies in blocking solution overnight at 4° C. After washing 6 times with PBS on Biotek 406 cell plate washer (Beckman Coulter), cells were then incubated with fluorophore-conjugated secondary antibodies for 1 hour at room temperature in the dark to avoid photobleaching. Cells were then washed 6 more times in with PBS before imaging. Fluorescent images were captured using IN Cell 6000 confocal microscope (GE Healthcare Life Sciences). The image analysis was performed with IN Cell 6000 analysis software.
Prior to experimentation, media volume in wells containing neurons was equalized with liquid handling automation (Bravo) in order to ensure precise control of concentrations. All Aβ42 oligomers, anti-Aβ, small molecules, inflammatory cytokines were prepared at 10× concentration and added to Neuronal Culture Media at an appropriate volume. For the repeated dosing experiments, the media were refreshed 50% at each dosing first, before adding Aβ42 oligomers, and/or anti-Aβ antibody at the specified final concentration.
In double (neuron, astrocyte) and triple (neuron, astrocyte, microglia) cultures, each small molecule listed in Table 1 was tested in the AD model paradigm at up to four concentrations. Molecules that characterized ≥30% rescue in any of the four measurements of dendrites area (MAP2), synapses count (synapsin 1/2), or cell count (CUX2), or axon area (Beta III Tubulin; “BT3”)) were classified as hits (FIGS. 11A-11D, Table 2, and Table 3).

[2] = system: human iPSC neurons, astrocytes and microglia treated with 5 μM sAβ42s; assay: Focused small molecule screen, triple culture (neuron, astrocyte, microglia), rescue from sAβ42s toxicity; assay type: cell-based; conditions: for percent rescue from sAβ42s toxicity at 0.78 µM / percent rescue from sAβ42s toxicity at 3.13 µM / percent rescue from sAβ42s toxicity at 12.5 µM: Homo sapiens, iPSC
Procedure, shortened: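 A hit was any compound giving ≥30% rescue of dendrite area (MAP2), synapse count, CUX2 cell count or axon area when dosed against 5 μM sAβ42s toxicity. Testing used iPSC-derived double (neuron/astrocyte) or triple (plus microglia) cultures, at four concentrations of 50, 25, 12.5 and 6.25 μM for double and 50, 12.5, 3.1 and 0.78 μM for triple cultures.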

[3] = 25 μM compound, read-out: % B3T rescue
[4] = 25 μM compound, read-out: % Cux2 rescue
[5] = 25 μM compound, read-out: % MAP2 rescue
[6] = 25 μM compound, read-out: % Synapse rescue
[7] = 0.78 μM compound, read-out: % B3T rescue
[8] = 0.78 μM compound, read-out: % MAP2 rescue
[9] = 0.78 μM compound, read-out: % Synapse rescue

## CN1CCN(CCOc2cc(OC3CCOCC3)c3c(Nc4c(Cl)ccc5c4OCO5)ncnc3c2)CC1 [Saracatinib (AZD0530), Saracatinib]
[1]; 6.25 μM compound, read-out: % B3T rescue
  percent rescue from sAβ42s toxicity at 6.25 µM: 62%
[1]; 6.25 μM compound, read-out: % Cux2 rescue
  percent rescue from sAβ42s toxicity at 6.25 µM: 7%
[1]; 6.25 μM compound, read-out: % MAP2 rescue
  percent rescue from sAβ42s toxicity at 6.25 µM: 61%
[1]; 6.25 μM compound, read-out: % Synapse rescue
  percent rescue from sAβ42s toxicity at 6.25 µM: 32%
[1]; 12.5 μM compound, read-out: % B3T rescue
  percent rescue from sAβ42s toxicity at 12.5 µM: 56%
[1]; 12.5 μM compound, read-out: % Cux2 rescue
  percent rescue from sAβ42s toxicity at 12.5 µM: 13%
[1]; 12.5 μM compound, read-out: % MAP2 rescue
  percent rescue from sAβ42s toxicity at 12.5 µM: 71%
[1]; 12.5 μM compound, read-out: % Synapse rescue
  percent rescue from sAβ42s toxicity at 12.5 µM: 34%
[1]; [3]
  percent rescue from sAβ42s toxicity at 25 µM: 30%
[1]; [4]
  percent rescue from sAβ42s toxicity at 25 µM: 18%
[1]; [5]
  percent rescue from sAβ42s toxicity at 25 µM: 65%
[1]; [6]
  percent rescue from sAβ42s toxicity at 25 µM: 10%
[2]; [7]
  percent rescue from sAβ42s toxicity at 0.78 µM: 99%
[2]; [8]
  percent rescue from sAβ42s toxicity at 0.78 µM: 72%
[2]; [9]
  percent rescue from sAβ42s toxicity at 0.78 µM: 65%
[2]; 3.13 μM compound, read-out: % B3T rescue
  percent rescue from sAβ42s toxicity at 3.13 µM: 99%
[2]; 3.13 μM compound, read-out: % MAP2 rescue
  percent rescue from sAβ42s toxicity at 3.13 µM: 73%
[2]; 3.13 μM compound, read-out: % Synapse rescue
  percent rescue from sAβ42s toxicity at 3.13 µM: 65%
[2]; 12.50 μM compound, read-out: % B3T rescue
  percent rescue from sAβ42s toxicity at 12.5 µM: 35%
[2]; 12.50 μM compound, read-out: % MAP2 rescue
  percent rescue from sAβ42s toxicity at 12.5 µM: -12%
[2]; 12.50 μM compound, read-out: % Synapse rescue
  percent rescue from sAβ42s toxicity at 12.5 µM: -2%

## O=C(Nc1cccc(Br)c1)c1cccc(S(=O)(=O)N2CCCCCC2)c1 [AK 7]
[1]; 50 μM compound
  % B3T rescue: 42%
  % Cux2 rescue: 0%
  % MAP2 rescue: −17%
  % Synapse rescue: −5%
[2]; 0.78 μM compound
  % B3T rescue: 79%
  % MAP2 rescue: 1%
  % Synapse rescue: 3%
[2]; 3.13 μM compound
  % B3T rescue: 77%
  % MAP2 rescue: 18%
  % Synapse rescue: 13%
[2]; 12.50 μM compound
  % B3T rescue: 81%
  % MAP2 rescue: 53%
  % Synapse rescue: 42%
[2]; 50.00 μM compound
  % B3T rescue: 56%
  % MAP2 rescue: 28%
  % Synapse rescue: 17%

## Cc1ccc2c(c1)C(=O)[C@]1(O)CCN(c3ccccc3)C1=N2 [(S)-(−)-Blebbistatin]
[1]; 6.25 μM compound
  % B3T rescue: 41%
  % Cux2 rescue: 10%
  % MAP2 rescue: 21%
  % Synapse rescue: 19%
[1]; 12.5 μM compound
  % B3T rescue: 34%
  % Cux2 rescue: 3%
  % MAP2 rescue: 25%
  % Synapse rescue: 15%
[1]; 25 μM compound
  % B3T rescue: 38%
  % Cux2 rescue: 5%
  % MAP2 rescue: 34%
  % Synapse rescue: 13%
[1]; 50 μM compound
  % B3T rescue: 49%
  % Cux2 rescue: 23%
  % MAP2 rescue: 34%
  % Synapse rescue: 12%
[2]; 50.00 μM compound
  % B3T rescue: 36%
  % MAP2 rescue: 24%
  % Synapse rescue: 20%

## COc1cccc2c1C(=O)c1c(O)c3c(c(O)c1C2=O)C[C@@](O)(C(C)=O)C[C@@H]3O[C@H]1C[C@H](N)[C@H](O)[C@H](C)O1 [Daunorubicin hydrochloride]
[1]; [3]
  percent rescue from sAβ42s toxicity at 25 µM: 73%
[1]; [4]
  percent rescue from sAβ42s toxicity at 25 µM: -23%
[1]; [5]
  percent rescue from sAβ42s toxicity at 25 µM: -122%
[1]; [6]
  percent rescue from sAβ42s toxicity at 25 µM: -27%
[1]; 50 μM compound, read-out: % B3T rescue
  percent rescue from sAβ42s toxicity at 50 µM: 101%
[1]; 50 μM compound, read-out: % Cux2 rescue
  percent rescue from sAβ42s toxicity at 50 µM: -39%
[1]; 50 μM compound, read-out: % MAP2 rescue
  percent rescue from sAβ42s toxicity at 50 µM: -124%
[1]; 50 μM compound, read-out: % Synapse rescue
  percent rescue from sAβ42s toxicity at 50 µM: -27%
[2]; [7]
  percent rescue from sAβ42s toxicity at 0.78 µM: 68%
[2]; [8]
  percent rescue from sAβ42s toxicity at 0.78 µM: 74%
[2]; [9]
  percent rescue from sAβ42s toxicity at 0.78 µM: 52%
